Values after ≈ are worked out from the molar mass of the structure shown. Read-outs that look alike come from different tables or passages of the source.
Tests used:
[1] = Acute toxicity; settings: mouse, in vivo, ip; intraperitoneal administration to mice
[2] = test system: Klebsiella pneumoniae ATCC 10031; test: Minimum inhibitory concentration, agar dilution method; assay type: cell-based; settings: ATCC10031, pH 7
Experimental: (§1) (A) Minimum inhibitory concentration against various microorganisms (MIC μg/ml)
(§2) The antibacterial activity was measured by the agar dilution method, using a medium (pH 7) prepared by dissolving 3 g of Bacto-Tryptone (Manufacturedby Difco Co., Ltd.), 3 g of meat extract, 1 g of yeast extract, 1 g of glucose and 16 g of agar in 1 l of water.

[3] = test system: Staphylococcus aureus ATCC 6538P; test: as above; assay type: cell-based; settings: ATCC6538P, pH 7
Experimental: as §1, §2

[4] = test system: Bacillus subtilis No. 10707; test: as above; assay type: cell-based; settings: pH 7
Experimental: as §1, §2

[5] = test system: Salmonella typhi ATCC 9992; test: as above; assay type: cell-based; settings: Salmonella enterica, pH 7
Experimental: as §1, §2

[6] = test system: Escherichia coli ATCC 26; test: as above; assay type: cell-based; settings: ATCC26, pH 7
Experimental: as §1, §2

[7] = test system: lymphocytic leukemia P388 tumor; test: Therapeutic effect on lymphocytic leukemia P388 tumor; assay type: in vivo, male CDF1 mice
Experimental: (2) Therapeutic effect on lymphocytic leukemia P388 tumor
Five male CDF1 mice each having a weight of about 22 g were used for each group as test animals, and 1×10^6 cells of lymphocytic leukemia P388 tumor were implanted intraperitoneally into the test animals. […] The mean survival days after implantation and increased life span (T/C) (T: mean survival days for the treated groups, C: mean survival days for the control group) were calculated.
For comparison, 0.2 ml of PBS solution containing mitomycin C was intraperitoneally administered to a group of animals 24 hours after tumor implantation.

[8] = Solubility; assay type: physicochemical
[9] = test system: Sarcoma 180 solid tumor; assay type: in vivo, male ddY-strain mice; settings: for Average Tumor Volume / T/C (average tumor volume treated/control): day 10
Experimental: (1) Therapeutic effect against Sarcoma 180 solid tumor
Six male ddY-strain mice each having a weight of about 20 g were used for each group as test animals, and 5×10^6 cells of Sarcoma 180 ascites tumor were implanted subcutaneously into the animals at the axilla. 0.2 ml of phosphate buffered saline (hereinafter referred to as PBS) containing DC-88A or DC-89Al at the concentrations shown in Tables 3 and 4 was administered once intraperitoneally 24 hours after implantation.
The composition of PBS was 0.8 g/dl NaCl, 0.02 g/dl KCl, […] Na2 HPO4 and 0.02 g/dl KH2 PO4 (pH 7.2).
The average tumor volume (mm^3) and T/C [T: average tumor volume of the groups treated with the test compound (mm^3), C: that of control group which received an intraperitoneal administration of 0.2 ml of PBS solution (mm^3)] were determined ten days after implantation.
For comparison, 0.2 ml of PBS containing mitomycin C was intraperitoneally administered to a group of animals 24 hours after tumor implantation.

[10] = test system: Shigella sonnei ATCC 9290; test: Minimum inhibitory concentration, agar dilution method; assay type: cell-based; settings: ATCC9290, pH 7
Experimental: as §1, §2

[11] = methanol, ethanol, acetone, chloroform, ethyl acetate, DMSO

COC(=O)C1(C)Nc2c(O)cc3c(c2C1=O)CC(Cl)CN3C(=O)c1cc2cc(OC)c(OC)c(OC)c2[nH]1 (stereo not drawn) [DC-89Al, duocarmycin Cl]
LD50 [1]: ~1.17 mg/kg
MIC [2]: 4.2 µg/mL (≈ 7.72 µM)
MIC [3]: > 8.4 µg/mL
MIC [4]: 0.07 µg/mL (≈ 0.129 µM)
MIC [5]: > 100 µg/mL
MIC [6]: > 100 µg/mL
Increased Life Span (T/C) ([7]; 0.125 mg/kg ip once): 1.28
Mean Survival Days ([7]; 0.125 mg/kg ip once 24 h after implantation, control 10.7): 13.8 days
Increased Life Span (T/C) ([7]; 0.25 mg/kg ip once): 1.38
Mean Survival Days ([7]; 0.25 mg/kg ip once 24 h after implantation, control 10.7): 14.8 days
Increased Life Span (T/C) ([7]; 0.5 mg/kg ip once): 1.40
Mean Survival Days ([7]; 0.5 mg/kg ip once 24 h after implantation, control 10.7): 15.0 days
Increased Life Span (T/C) ([7]; 1 mg/kg ip once): 1.23
Mean Survival Days ([7]; 1 mg/kg ip once 24 h after implantation, control 10.7): 13.2 days
Solubility [8, 11]: readily soluble
Solubility ([8]; water and hexane (n-hexane)): sparingly soluble
Average Tumor Volume ([9]; 0.78125 mg/kg ip once 24 h after implantation, control 1828.0): 1409.5 mm^3
T/C (average tumor volume treated/control) ([9]; 0.78125 mg/kg ip once): 0.77
Toxic (printed in column Average Tumor Volume) ([9]; 1.5625 mg/kg ip once 24 h after implantation): Toxic

COC(=O)C1(C)NC2=C(C1=O)C13CC1CN(C(=O)c1cc4cc(OC)c(OC)c(OC)c4[nH]1)C3=CC2=O (stereo not drawn) [DC-88A, duocarmycin A]
LD50 [1]: ~0.94 mg/kg
MIC [2]: 0.5 µg/mL (≈ 0.985 µM)
MIC [3]: 0.05 µg/mL (≈ 0.0985 µM)
MIC [10]: 40 µg/mL (≈ 78.8 µM)
MIC [4]: 0.05 µg/mL (≈ 0.0985 µM)
MIC [5]: 10 µg/mL (≈ 19.7 µM)
MIC [6]: 20 µg/mL (≈ 39.4 µM)
Increased Life Span (T/C) ([7]; 0.024 mg/kg, continuous administration for five days): 1.43
Mean Survival Days ([7]; 0.024 mg/kg, continuous administration for five days, control 11.0): 15.7 days
Increased Life Span (T/C) ([7]; 0.098 mg/kg ip once): 1.08
Mean Survival Days ([7]; 0.098 mg/kg ip once 24 h after implantation, control 11.0): 11.9 days
Increased Life Span (T/C) ([7]; 0.195 mg/kg ip once): 1.15
Mean Survival Days ([7]; 0.195 mg/kg ip once 24 h after implantation, control 11.0): 12.7 days
Increased Life Span (T/C) ([7]; 0.39 mg/kg ip once): 1.14
Mean Survival Days ([7]; 0.39 mg/kg ip once 24 h after implantation, control 11.0): 12.5 days
Increased Life Span (T/C) ([7]; 0.78 mg/kg ip once): 1.12
Mean Survival Days ([7]; 0.78 mg/kg ip once 24 h after implantation, control 11.0): 12.3 days
Solubility [8, 11]: Soluble
Solubility ([8]; water and hexane (n-hexane)): sparingly soluble
Average Tumor Volume ([9]; 0.195 mg/kg ip once 24 h after implantation, control 2124.7): 1104.8 mm^3
T/C (average tumor volume treated/control) ([9]; 0.195 mg/kg ip once): 0.52
Average Tumor Volume ([9]; 0.39 mg/kg ip once 24 h after implantation, control 2124.7): 849.9 mm^3
T/C (average tumor volume treated/control) ([9]; 0.39 mg/kg ip once): 0.40
Average Tumor Volume ([9]; 0.78 mg/kg ip once 24 h after implantation, control 2124.7): 467.4 mm^3
T/C (average tumor volume treated/control) ([9]; 0.78 mg/kg ip once): 0.22

CO[C@@]12[C@H](COC(N)=O)C3=C(C(=O)C(C)=C(N)C3=O)N1C[C@@H]1N[C@@H]12 [Mitomycin C, mitomycin C, reference compound]
Increased Life Span (T/C) ([7]; 6.0 mg/kg ip): 1.60
Mean Survival Days ([7]; 6.0 mg/kg ip 24 h after implantation, control 10.7): 17.2 days
Average Tumor Volume ([9]; 6 mg/kg ip 24 h after implantation, control 1828.0): 499.6 mm^3
T/C (average tumor volume treated/control) ([9]; 6 mg/kg ip): 0.27
